Legend:
p53(Y220C) = molecular target: T1, p53(Y220C) (Homo sapiens, UniProt P04637, Y220C); assay: In vitro DNA binding assay (HTRF), His-p53 Y220C (94-294) with biotinylated p53 consensus DNA; type: biochemical; details: HTRF; 27 °C; His-p53 Y220C (94-294) 2.5 nM; biotinylated DNA 10 nM; normalized to 2 μM Ref-1a; EC50 = concentration at 50% Activation; read-out: p53(Y220C) EC50
T1 construct: His-p53 Y220C (94-294) protein
How it was run: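 His-p53 Y220C (94-294), 2.5 nM, preincubated with compound and anti-His-Tb cryptate 15 min at 25 °C then 60 min at 27 °C; 10 nM biotinylated consensus DNA with streptavidin-d2 added for 60 min more (HEPES pH 7.4, 75 mM KCl). HTRF 665/620 ratio, normalized to 2 μM Ref-1a high control; EC50 from 4-parameter fit.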

NUGC-3 (P53 Y220C) = assay: Cell viability assay (CellTiter-Glo); type: cell-based; details: NUGC-3 cells, 6 days, 37 °C
Method: Cells were collected and counted. A desired number of cells was seeded into 96-well microplate and cultured in 37 °C cell incubator overnight. Compounds dissolved in cell culture medium were added into cell plate and cultured for 6 days. After balancing CellTiter-Glo reagent and cells at room temperature for 30 min, equal volume of CellTiter-Glo reagents was added to assay plate and shaken for 2 min for cell lysis. The cells were balanced at room temperature for 10 minutes and Luminescence signal was read using Envision. The percent of cell viability for compounds treated wells were normalized between High control and low control. Wells containing cell culture medium and same percentage DMSO served as Low control. Wells containing cells and same percentage DMSO served as High control. Cell viability (%)=(Luminescence readoutCompound treated−Luminescence readoutLow control)/(Luminescence readoutHigh control−Luminescence readoutLow control)*100%. Then the data were analyzed either by fitting a 4-parameter logistic model or by Excel to calculate IC50 values. And the IC50 was the concentration at […] Cell viability on the curve.

p53(Y220C)_NUGC-3 = p53(Y220C)_NUGC-3 (Homo sapiens, UniProt P04637, Y220C); assay: Reporter gene assay (NUGC-3_P53_Luc cells); type: cell-based; details: 6 hours, 37 °C, luciferase, normalized to Ref-1a 10 μM, EC50 = concentration at 50% Activity, read-out: p53(Y220C)_NUGC-3 EC50
Method: NUGC-3_P53_Luc single clonal cell line was established using pGL4.38[luc2P/p53 RE/Hygro] Vector (E365A, promega). NUGC-3_P53_Luc single clonal cells were cultured in 37 °C cell incubator before use. NUGC-3_P53_Luc cells were collected and washed twice with PBS to remove phenol red and then resuspended in medium to a proper concentration. Tested compound dilutions were transferred into 384 well assay plates (PerkinElmer). A desired number of cells was seeded into the assay plate and cultured for 6 hours at 37 °C cell incubator. Britelite plus Luciferase Assay Reagent were added into each well and the luminescence value was recorded on Envision. The percent of activity value of compounds treated wells was normalized between high control and low control. Wells containing cells and Ref-la (10 μM) served as high control, and wells containing cells and same percentage of DMSO served as low control. Activity value (%)=(Luminescence readoutCompound treated−Luminescence readoutLow control)/(Luminescence readoutHigh control−Luminescence readoutLow control)*100%. Then the data were analyzed either by fitting a 4-parameter logistic model or by Excel to calculate EC50 values and the EC50 was the concentration at 50% Activity on the curve.

`COc1cc([S@@](C)(=N)=O)ccc1NCC#Cc1sc2c(N[C@@H]3CCN(C)C[C@@H]3F)cccc2c1[C@@H](O)C(F)(F)F` [Example 60, (S)-(4-((3-(7-(((3S,4R)-3-fluoro-1-methylpiperidin-4-yl)amino)-3-((R)-2,2,2-trifluoro-1-hydroxyethyl)benzo[b]thiophen-2-yl)prop-2-yn-1-yl)amino)-3-methoxyphenyl)(imino)(methyl)-16-sulfanone] showed an EC50 (p53(Y220C)) of 74 nM, an IC50 (NUGC-3 (P53 Y220C)) of 1800 nM and an EC50 (p53(Y220C)_NUGC-3) of 281 nM.

— patent US20260374794A1, “COMPOUNDS TARGETING MUTANT OF P53” (JACOBIO PHARMACEUTICALS CO., LTD., priority 2022, published 2026)
